For experiment [1], the target named is T1, Muscarinic acetylcholine receptor M1 (Homo sapiens) (UniProt P11229).
T1 sequence (whole entry): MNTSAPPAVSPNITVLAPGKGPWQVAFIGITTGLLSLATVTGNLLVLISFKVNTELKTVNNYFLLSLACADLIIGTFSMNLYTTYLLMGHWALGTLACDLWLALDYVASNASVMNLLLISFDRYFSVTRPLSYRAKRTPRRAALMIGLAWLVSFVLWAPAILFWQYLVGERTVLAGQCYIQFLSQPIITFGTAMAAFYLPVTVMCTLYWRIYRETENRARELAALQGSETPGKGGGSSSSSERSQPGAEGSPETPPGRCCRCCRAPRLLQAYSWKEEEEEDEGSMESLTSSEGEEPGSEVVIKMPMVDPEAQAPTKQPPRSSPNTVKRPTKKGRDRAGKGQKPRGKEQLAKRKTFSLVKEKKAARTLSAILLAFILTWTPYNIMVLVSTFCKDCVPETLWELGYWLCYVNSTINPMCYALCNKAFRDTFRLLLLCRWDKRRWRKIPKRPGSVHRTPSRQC
Briefly: Intrinsic activity at human muscarinic M1 receptor expressed in CHO cells assessed as effect on acetylcholine-induced intracellular calcium level by FLIPR assay relative to acetylcholine. The experiment is classed as functional, cell-based. On the technique in general: A change in cytosolic calcium serves as a functional read-out for many receptors and channels.

For experiment [2], the target named is T2, Muscarinic acetylcholine receptor M1 (Homo sapiens, UniProt P11229).
T2 sequence (P11229 whole entry): T1 sequence (whole entry)
As to the kind of experiment: Agonist activity at human muscarinic M1 receptor expressed in CHO cells assessed as effect on acetylcholine-induced intracellular calcium level by FLIPR assay. Type of experiment: functional, cell-based.

Experiment [3] deals with Muscarinic acetylcholine receptor M3 (Homo sapiens, UniProt P20309). As to the kind of experiment: Inhibition of human muscarinic M3 receptor expressed in CHO cells. Type of experiment: cell-based.

pEC50, pIC50: −log10 of the molar value.

Muscarinic acetylcholine receptor M3, sequence (P20309 whole entry): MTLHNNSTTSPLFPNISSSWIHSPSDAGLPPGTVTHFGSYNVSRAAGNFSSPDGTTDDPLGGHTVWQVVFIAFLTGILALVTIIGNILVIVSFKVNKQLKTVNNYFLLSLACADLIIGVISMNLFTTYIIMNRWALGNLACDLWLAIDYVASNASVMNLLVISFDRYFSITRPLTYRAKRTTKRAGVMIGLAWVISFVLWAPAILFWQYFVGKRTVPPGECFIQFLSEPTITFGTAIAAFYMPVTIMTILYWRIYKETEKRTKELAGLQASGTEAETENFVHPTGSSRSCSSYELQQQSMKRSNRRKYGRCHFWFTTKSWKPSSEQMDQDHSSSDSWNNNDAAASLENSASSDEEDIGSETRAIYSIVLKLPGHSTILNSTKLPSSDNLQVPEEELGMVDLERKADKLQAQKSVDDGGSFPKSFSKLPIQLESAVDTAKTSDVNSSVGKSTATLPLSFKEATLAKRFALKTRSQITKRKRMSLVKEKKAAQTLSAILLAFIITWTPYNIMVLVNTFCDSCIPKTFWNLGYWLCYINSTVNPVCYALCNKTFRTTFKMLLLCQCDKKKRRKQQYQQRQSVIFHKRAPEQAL

Turning to `Cc1ccc(C(=O)NCC2CCNCC2)c(-c2cccc(Cl)c2)c1`, in experiment [1], the Intrinsic activity came to 77%. Besides, in experiment [2], the negative-log EC50 (pEC50) is 6.80.
As for `Clc1cccc(-c2ccccc2OCCC2CCNCC2)c1`, in experiment [2], the pEC50 was less than 5.00.
With `O=C(NC[C@H]1CCNC[C@H]1F)c1c(F)cccc1-c1cccc(Cl)c1`, the Intrinsic activity in experiment [1] was determined as 68%. In experiment [3], this molecule had a negative-log IC50 (pIC50) of 5.00. In addition, the pEC50 in experiment [2] is 6.80.
Regarding `C[C@H]1CNCC[C@H]1CNC(=O)c1c(F)cccc1-c1cccc(Cl)c1` (relative stereo), the Intrinsic activity in experiment [1] is 92%. The molecule further showed a negative-log IC50 (pIC50) in experiment [3] of 5.60. In addition, in experiment [2], the negative logarithm of the EC50 (pEC50) was 7.70.
Regarding `Cc1ccc(-c2cccc(Cl)c2)c(C(=O)NCC2CCNCC2)c1`, the Intrinsic activity in experiment [1] is 67%. For the same molecule, the negative logarithm of the EC50 (pEC50) in experiment [2] was 6.00.
As for `O=C(NCC1CCNCC1)c1cnccc1-c1cccc(Cl)c1`, the Intrinsic activity in experiment [1] is 20%. The pEC50 in experiment [2] was less than 5.00.
Regarding `Clc1cccc(-c2ccccc2CNCC2CCNCC2)c1`, in experiment [2], the negative-log EC50 (pEC50) was less than 5.00.
Same read-out and setting: the same measure for `O=S(=O)(NCC1CCNCC1)c1ccccc1-c1cccc(Cl)c1`: less than 5.00.
`O=C(NCC1CCNCC1)c1cccnc1-c1cccc(Cl)c1`: the Intrinsic activity in experiment [1] came out at 0%. Moreover, the negative-log EC50 (pEC50) in experiment [2] was less than 5.00.
In the case of `O=C(NCC1CCNCC1)c1cc(Cl)ccc1-c1cccc(Cl)c1`, the Intrinsic activity in experiment [1] was found to be 74%. Besides, the pEC50 in experiment [2] was 7.00.
Take `O=C(NCC1CCNCC1)c1cccc(Cl)c1-c1cccc(Cl)c1`: the Intrinsic activity in experiment [1] was found to be 14%. Moreover, in experiment [2], the pEC50 is less than 5.00.
For `O=C(NCCC1CCNCC1)c1ccccc1-c1cccc(Cl)c1`, in that order: 52% and 5.50.
Consider `O=C(NCC1CCNCC1)c1sccc1-c1cccc(Cl)c1`, for which the Intrinsic activity in experiment [1] amounted to 0%. The negative-log EC50 (pEC50) in experiment [2] was less than 5.00.
As to `O=C(CCC1CCNCC1)c1ccccc1-c1cccc(Cl)c1`, in experiment [2], the negative-log EC50 (pEC50) was less than 5.00.
As for `Cc1cccc(C(=O)NCC2CCNCC2)c1-c1cccc(Cl)c1`, the Intrinsic activity in experiment [1] came to 34%. Also, the pEC50 in experiment [2] is less than 5.00.
As to `Clc1cccc(-c2ccccc2/C=C/CC2CCNCC2)c1`, the Intrinsic activity in experiment [1] worked out at 55%. Moreover, the negative logarithm of the IC50 (pIC50) in experiment [3] is 7.90. Moreover, in experiment [2], the negative-log EC50 (pEC50) is 6.00.
Regarding `O=C(NCC1CCNCC1)c1ccc(Cl)cc1-c1cccc(Cl)c1`, the Intrinsic activity in experiment [1] came out at 79%. For the same molecule, in experiment [2], the pEC50 was 7.00.
For `Cn1cc(-c2cccc(Cl)c2)c(C(=O)NCC2CCNCC2)n1`, the Intrinsic activity in experiment [1] was determined as 0%. Further, the negative logarithm of the EC50 (pEC50) in experiment [2] was less than 5.00.
The matching figures for `O=C(NCC1CCNCC1)c1c(Cl)cccc1-c1cccc(Cl)c1`: 109% and 7.20.
Regarding `O=C(Cc1ccccc1-c1cccc(Cl)c1)NC1CCNCC1`, the Intrinsic activity in experiment [1] came to 74%. Further, the pIC50 in experiment [3] was 6.90. In experiment [2], the pEC50 is 6.80.
Take `Fc1cccc(-c2cccc(Cl)c2)c1-c1noc(C2CCNCC2)n1`: the negative logarithm of the EC50 (pEC50) in experiment [2] is less than 5.00.
Turning to `O=C(NCC1CCNCC1)c1ncccc1-c1cccc(Cl)c1`, in experiment [1], the Intrinsic activity came out at 18%. Besides, the pEC50 in experiment [2] is less than 5.00.
For `Fc1cccc(-c2cc(Cl)ccc2Cl)c1-c1nc(C2CCNCC2)no1`, the Intrinsic activity in experiment [1] is 65%. In experiment [3], this molecule gave a negative logarithm of the IC50 (pIC50) of 5.40. Also, the negative-log EC50 (pEC50) in experiment [2] was 6.30.
As to `Fc1cccc(-c2cccc(Cl)c2)c1-c1noc(CC2CCNCC2)n1`, the negative logarithm of the EC50 (pEC50) in experiment [2] was less than 5.00.
As to `O=C(NCC1CCNCC1)c1ccncc1-c1cccc(Cl)c1`, in experiment [1], the Intrinsic activity was 3%. Further, the pEC50 in experiment [2] is less than 5.00.
Turning to `O=C(NCC1CCNCC1)c1c(-c2cccc(Cl)c2)ccc(Cl)c1F`, the Intrinsic activity in experiment [1] was found to be 80%. For the same molecule, in experiment [2], the pEC50 was 7.60.
In the case of `CN(Cc1ccccc1-c1cccc(Cl)c1)C(=O)C1CCNCC1`, in experiment [2], the negative logarithm of the EC50 (pEC50) is less than 5.00.
As for `O=C(NCC1CCNCC1)c1c(F)cccc1-c1cccc(Cl)c1`, in experiment [1], the Intrinsic activity stood at 90%. Besides, the pEC50 in experiment [2] is 7.80.
Take `O=C(NCC1CCNCC1)c1cc(F)ccc1-c1cccc(Cl)c1`: the Intrinsic activity in experiment [1] was found to be 78%. Further, in experiment [2], the negative-log EC50 (pEC50) was 7.30.
Turning to `CS(=O)(=O)N(Cc1c(F)cccc1-c1cccc(Cl)c1)CC1CCNCC1`, the Intrinsic activity in experiment [1] came to 51%. For the same molecule, in experiment [2], the pEC50 was 5.80.
As to `CN(C(=O)CC1CCNCC1)c1ccccc1-c1cccc(Cl)c1`, in experiment [2], the negative logarithm of the EC50 (pEC50) is less than 5.00.
`O=C(NCC1CCNCC1)c1c(F)cccc1-c1cc(Cl)ccc1Cl`: in experiment [1], the Intrinsic activity stood at 92%. The same molecule showed a pIC50 in experiment [3] of 5.90. Moreover, in experiment [2], the negative logarithm of the EC50 (pEC50) is 7.50.
With `O=C(NCc1ccccc1-c1cccc(Cl)c1)C1CCNCC1`, the Intrinsic activity in experiment [1] came to 81%. In experiment [3], the pIC50 was 5.70. Further, the negative logarithm of the EC50 (pEC50) in experiment [2] was 6.30.
Take `O=C(OCC1CCNCC1)c1ccccc1-c1cccc(Cl)c1`: the pEC50 in experiment [2] is less than 5.00.
With `CC(=O)N(Cc1ccccc1-c1cccc(Cl)c1)CC1CCNCC1`, the Intrinsic activity in experiment [1] was found to be 70%. For the same molecule, the negative-log EC50 (pEC50) in experiment [2] was 6.40.
As for `O=C(NCC1(F)CCNCC1)c1c(F)cccc1-c1cccc(Cl)c1`, the Intrinsic activity in experiment [1] was 87%. The molecule also gave a negative logarithm of the IC50 (pIC50) in experiment [3] of 5.90. For the same molecule, in experiment [2], the pEC50 is 7.20.
In the case of `CC1CNCC=C1CNC(=O)c1c(-c2cccc(Cl)c2)ccc(Cl)c1F` (configuration not stated), the Intrinsic activity in experiment [1] stood at 72%. Further, the negative logarithm of the EC50 (pEC50) in experiment [2] was 6.80.
As to `Clc1cccc(-c2ccccc2COCC2CCNCC2)c1`, the pEC50 in experiment [2] was less than 5.00.
Take `CC[C@H]1CNCC[C@@H]1CNC(=O)c1c(F)cccc1-c1cccc(Cl)c1`: in experiment [1], the Intrinsic activity worked out at 92%. Besides, the pIC50 in experiment [3] was 5.00. The negative-log EC50 (pEC50) in experiment [2] is 7.40.
On to `Cc1cccc(-c2cccc(Cl)c2)c1C(=O)NCC1CCNCC1`, for which the Intrinsic activity in experiment [1] worked out at 37%. Also, the pEC50 in experiment [2] was less than 5.00.
Consider `O=S(=O)(CCC1CCNCC1)c1ccccc1-c1cccc(Cl)c1`, for which the Intrinsic activity in experiment [1] amounted to 71%. Besides, the negative logarithm of the IC50 (pIC50) in experiment [3] was 7.70. For the same molecule, the negative-log EC50 (pEC50) in experiment [2] was 7.20.
`CN(CC1CCNCC1)S(=O)(=O)c1ccccc1-c1cccc(Cl)c1`: the pEC50 in experiment [2] is less than 5.00.
As for `O=C(NCC1CCNCC1)c1ccc(F)cc1-c1cccc(Cl)c1`, the Intrinsic activity in experiment [1] worked out at 24%. The negative logarithm of the EC50 (pEC50) in experiment [2] is less than 5.00.
For `CN(C(=O)Cc1ccccc1-c1cccc(Cl)c1)C1CCNCC1`, in that order: 7.8% and 7.30.
In the case of `OC(CCC1CCNCC1)c1ccccc1-c1cccc(Cl)c1` (configuration not stated), in experiment [1], the Intrinsic activity was determined as 100%. This molecule also showed a negative logarithm of the IC50 (pIC50) in experiment [3] of 8.70. Also, in experiment [2], the pEC50 is 9.00.
Consider `O=C(NCC1CCNCC1)c1cccc(F)c1-c1cccc(Cl)c1`, for which the Intrinsic activity in experiment [1] is 45%. For the same molecule, the negative logarithm of the EC50 (pEC50) in experiment [2] was 5.30.
As for `O=C(NCC1=C(F)CNCC1)c1c(-c2cccc(Cl)c2)ccc(Cl)c1F`, the Intrinsic activity in experiment [1] turned out to be 74%. In experiment [3], the pIC50 is 5.00. The negative-log EC50 (pEC50) in experiment [2] is 6.80.
Turning to `O=C(CC1CCNCC1)Nc1ccccc1-c1cccc(Cl)c1`, the Intrinsic activity in experiment [1] was 43%. Besides, the pEC50 in experiment [2] is 5.10.

What is called pEC50 is the EC50 on a negative log10 scale, so that one unit is a factor of ten. As usually defined, the pIC50 is the negative decadic logarithm of the IC50, by convention in mol/L. A high value points to a low IC50.

For the origin of these results see ChEMBL document CHEMBL1158595, “2' biaryl amides as novel and subtype selective M1 agonists. Part II: Further optimization and profiling” (Bioorg Med Chem Lett, 2010).
